In patent US11331327B2, “Antibacterial use of halogenated salicylanilides” (UNION therapeutics A/S, priority 2014, dated 2022):
In brackets after ≈: the same amount, converted by molar mass. Read-outs that look alike come from different tables or passages of the source.

Tested on: S. aureus clinical isolates and S. aureus ATCC 29213
Experiment: MIC assay according to CLSI criteria, Example 2, S. aureus strains
Assay type: cell-based, Staphylococcus aureus
Settings: for MIC: Staphylococcus aureus, read-out: MIC
Procedure: Strains were conserved in Luria Bertani (LB) Broth (S. aureus) or Brain Heart Infusion (BHI) (S. pyogenes) supplemented with glycerol 15% (v/v) at −80° C., and reactivated by isolation on LB (S. aureus) or BHI (S. pyogenes) agar plates. Strains were cultivated in Mueller Hinton (MH) Broth-cation adjusted (S. aureus) or BHI (S. pyogenes). All strains were cultivated aerobically (microaerobically for S. pyogenes strains) at 37° C.
Bacterial cultures were stopped in their exponential growth phase and plates were inoculated with the approximate concentration of 5×10^5 cells per well. Plates were incubated at 37° C. for 18 hours (S. aureus) or 24 hours (S. pyogenes).

[1] = ATCC29213, Staphylococcus aureus strains
[2] = S. aureus strains with MIC 0.5 μg/ml

O=C(Nc1ccc([N+](=O)[O-])cc1Cl)c1cc(Cl)ccc1O [Niclosamide, 5-chloro-N-(2-chloro-4-nitrophenyl)-2-hydroxybenz-amide]
MIC50 [1]: 0.25 µg/mL (≈ 0.764 µM) | MIC90 [1]: 0.5 µg/mL (≈ 1.53 µM) | MIC distribution (percentage of strains) [2]: 27% | MIC distribution (ratio of strains) [2]: (55/205) | MIC Range values (Staphylococcus aureus strains): 0.125 to 0.5 µg/mL | MIC (ATCC29213, all targeted S. aureus strains, including resistant strains): ≤ 0.5 µg/mL | MIC (ATCC29213, strain 9-1862936): 0.5 µg/mL (≈ 1.53 µM) | MIC (ATCC29213, strain 9-2625962): 0.5 µg/mL (≈ 1.53 µM) | MIC (ATCC29213, strain 9-2642158): 0.25 µg/mL (≈ 0.764 µM) | MIC (ATCC29213, strain 9-2955245): 0.25 µg/mL (≈ 0.764 µM) | MIC (ATCC29213, strain 9-26422166): 0.5 µg/mL (≈ 1.53 µM) | MIC (ATCC29213, strain 000040C): 0.5 µg/mL (≈ 1.53 µM) | MIC (ATCC29213, strain 000041C): 0.25 µg/mL (≈ 0.764 µM) | MIC (ATCC29213, strain 000274T): 0.25 µg/mL (≈ 0.764 µM) | MIC (ATCC29213, strain 114660U): 0.25 µg/mL (≈ 0.764 µM) | MIC (ATCC29213, strain 115015T): 0.5 µg/mL (≈ 1.53 µM) | MIC (ATCC29213, strain 115242C): 0.5 µg/mL (≈ 1.53 µM) | MIC (ATCC29213, strain 115263C): 0.25 µg/mL (≈ 0.764 µM) | MIC (ATCC29213, strain 115268C): 0.5 µg/mL (≈ 1.53 µM) | MIC (ATCC29213, strain 115273C): 0.5 µg/mL (≈ 1.53 µM) | MIC (ATCC29213, strain 115295C): 0.25 µg/mL (≈ 0.764 µM) | MIC (ATCC29213, strain 115303C): 0.5 µg/mL (≈ 1.53 µM) | MIC (ATCC29213, strain 115370U): 0.25 µg/mL (≈ 0.764 µM) | MIC (ATCC29213, strain 115427C): 0.25 µg/mL (≈ 0.764 µM) | MIC (ATCC29213, strain 115445C): 0.5 µg/mL (≈ 1.53 µM) | MIC (ATCC29213, strain 115561C): 0.25 µg/mL (≈ 0.764 µM) | MIC (ATCC29213, strain 115584D): 0.25 µg/mL (≈ 0.764 µM) | MIC (ATCC29213, strain 115628T): 0.25 µg/mL (≈ 0.764 µM) | MIC (ATCC29213, strain 115690C): 0.25 µg/mL (≈ 0.764 µM) | MIC (ATCC29213, strain 115691T): 0.5 µg/mL (≈ 1.53 µM) | MIC (ATCC29213, strain 115740E): 0.5 µg/mL (≈ 1.53 µM) | MIC (ATCC29213, strain 115810E): 0.25 µg/mL (≈ 0.764 µM) | MIC (ATCC29213, strain 115903T): 0.5 µg/mL (≈ 1.53 µM) | MIC (ATCC29213, strain 116122T): 0.25 µg/mL (≈ 0.764 µM) | MIC (ATCC29213, strain ATCC 29213): 0.5 µg/mL (≈ 1.53 µM) | MIC (ATCC29213, strain E5-1029252): 0.25 µg/mL (≈ 0.764 µM) | MIC (ATCC29213, strain E5-1029558): 0.25 µg/mL (≈ 0.764 µM) | MIC (ATCC29213, strain E5-1030440): 0.25 µg/mL (≈ 0.764 µM) | MIC (ATCC29213, strain E5-1030469): 0.25 µg/mL (≈ 0.764 µM) | MIC (ATCC29213, strain E5-1030472): 0.5 µg/mL (≈ 1.53 µM) | MIC (ATCC29213, strain E5-1030482): 0.125 µg/mL (≈ 0.382 µM) | MIC (ATCC29213, strain E5-1033076 (first line, r202)): 0.5 µg/mL (≈ 1.53 µM) | MIC (ATCC29213, strain E5-1033076 (second line, r203)): 0.5 µg/mL (≈ 1.53 µM) | MIC (ATCC29213, strain E5-1033088): 0.25 µg/mL (≈ 0.764 µM) | MIC (ATCC29213, strain E5-1033091): 0.5 µg/mL (≈ 1.53 µM) | MIC (ATCC29213, strain E5-1035277): 0.5 µg/mL (≈ 1.53 µM) | MIC (ATCC29213, strain E5-1035284): 0.25 µg/mL (≈ 0.764 µM) | MIC (ATCC29213, strain E5-1035775): 0.5 µg/mL (≈ 1.53 µM) | MIC (ATCC29213, strain E5-1035779): 0.5 µg/mL (≈ 1.53 µM) | MIC (ATCC29213, strain E5-1037958): 0.5 µg/mL (≈ 1.53 µM) | MIC (ATCC29213, strain E5-1037971): 0.25 µg/mL (≈ 0.764 µM) | MIC (ATCC29213, strain E5-1038279): 0.5 µg/mL (≈ 1.53 µM) | MIC (ATCC29213, strain E5-1038286): 0.25 µg/mL (≈ 0.764 µM) | MIC (ATCC29213, strain E5-1038294): 0.5 µg/mL (≈ 1.53 µM) | MIC (ATCC29213, strain E5-1039684): 0.5 µg/mL (≈ 1.53 µM) | MIC (ATCC29213, strain E5-1039697): 0.25 µg/mL (≈ 0.764 µM) | MIC (ATCC29213, strain E5-1041977): 0.5 µg/mL (≈ 1.53 µM) | MIC (ATCC29213, strain E5-1041979): 0.5 µg/mL (≈ 1.53 µM) | MIC (ATCC29213, strain E5-1041980): 0.25 µg/mL (≈ 0.764 µM) | MIC (ATCC29213, strain E5-1041987): 0.5 µg/mL (≈ 1.53 µM) | MIC (ATCC29213, strain E5-1043184): 0.5 µg/mL (≈ 1.53 µM) | MIC (ATCC29213, strain E5-1043668): 0.25 µg/mL (≈ 0.764 µM) | MIC (ATCC29213, strain E5-1045179): 0.25 µg/mL (≈ 0.764 µM) | MIC (ATCC29213, strain E5-1046019): 0.25 µg/mL (≈ 0.764 µM) | MIC (ATCC29213, strain E5-1046020): 0.5 µg/mL (≈ 1.53 µM) | MIC (ATCC29213, strain E5-1046039): 0.25 µg/mL (≈ 0.764 µM) | MIC (ATCC29213, strain E5-1046070): 0.25 µg/mL (≈ 0.764 µM) | MIC (ATCC29213, strain E5-1046074): 0.25 µg/mL (≈ 0.764 µM) | MIC (ATCC29213, strain E5-1046085): 0.5 µg/mL (≈ 1.53 µM) | MIC (ATCC29213, strain E5-1046096): 0.5 µg/mL (≈ 1.53 µM) | MIC (ATCC29213, strain E5-1046296): 0.5 µg/mL (≈ 1.53 µM) | MIC (ATCC29213, strain E5-1046297): 0.5 µg/mL (≈ 1.53 µM) | MIC (ATCC29213, strain E5-1046298): 0.25 µg/mL (≈ 0.764 µM) | MIC (ATCC29213, strain E5-1046723): 0.25 µg/mL (≈ 0.764 µM) | MIC (ATCC29213, strain E5-1047585): 0.25 µg/mL (≈ 0.764 µM) | MIC (ATCC29213, strain E5-1047606): 0.5 µg/mL (≈ 1.53 µM) | MIC (ATCC29213, strain E5-1047924): 0.5 µg/mL (≈ 1.53 µM) | MIC (ATCC29213, strain E5-1048204): 0.25 µg/mL (≈ 0.764 µM) | MIC (ATCC29213, strain E5-1048428): 0.25 µg/mL (≈ 0.764 µM) | MIC (ATCC29213, strain E5-1048654): 0.25 µg/mL (≈ 0.764 µM) | MIC (ATCC29213, strain E5-1048670): 0.125 µg/mL (≈ 0.382 µM) | MIC (ATCC29213, strain EEFIC 01): 0.25 µg/mL (≈ 0.764 µM) | MIC (ATCC29213, strain EEFIC 02): 0.25 µg/mL (≈ 0.764 µM) | MIC (ATCC29213, strain K000772): 0.25 µg/mL (≈ 0.764 µM) | MIC (ATCC29213, strain K000796): 0.25 µg/mL (≈ 0.764 µM) | MIC (ATCC29213, strain K000863): 0.25 µg/mL (≈ 0.764 µM) | MIC (ATCC29213, strain K000864): 0.25 µg/mL (≈ 0.764 µM) | MIC (ATCC29213, strain K000866): 0.25 µg/mL (≈ 0.764 µM) | MIC (ATCC29213, strain K115498): 0.25 µg/mL (≈ 0.764 µM) | MIC (ATCC29213, strain K115688): 0.25 µg/mL (≈ 0.764 µM) | MIC (ATCC29213, strain K115689): 0.25 µg/mL (≈ 0.764 µM) | MIC (ATCC29213, strain R000019): 0.5 µg/mL (≈ 1.53 µM) | MIC (ATCC29213, strain R000020): 0.5 µg/mL (≈ 1.53 µM) | MIC (ATCC29213, strain R000024): 0.25 µg/mL (≈ 0.764 µM) | MIC (ATCC29213, strain U115579): 0.25 µg/mL (≈ 0.764 µM) | MIC (ATCC 29213 / MRSA, strain MRSA 01): 0.25 µg/mL (≈ 0.764 µM) | MIC (ATCC 29213 / MRSA, strain MRSA 02): 0.25 µg/mL (≈ 0.764 µM) | MIC (ATCC 29213 / MRSA, strain MRSA 03): 0.25 µg/mL (≈ 0.764 µM) | MIC (ATCC 29213 / MRSA, strain MRSA 04): 0.25 µg/mL (≈ 0.764 µM) | MIC (ATCC 29213 / MRSA, strain MRSA 05): 0.25 µg/mL (≈ 0.764 µM) | MIC (ATCC 29213 / MRSA, strain MRSA 06): 0.25 µg/mL (≈ 0.764 µM) | MIC (ATCC 29213 / MRSA, strain MRSA 07): 0.125 µg/mL (≈ 0.382 µM) | MIC (ATCC 29213 / MRSA, strain MRSA 08): 0.25 µg/mL (≈ 0.764 µM) | MIC (ATCC 29213 / MRSA, strain MRSA 09): 0.125 µg/mL (≈ 0.382 µM) | MIC (ATCC 29213 / MRSA, strain MRSA 10): 0.25 µg/mL (≈ 0.764 µM) | MIC (ATCC 29213 / MRSA, strain MRSA 11): 0.25 µg/mL (≈ 0.764 µM)
